Data set [1] is described as follows: Solubility, Experiment 1 (target concentration 2 mg/mL). The data set is classed as physicochemical. To be noted: 37° C.; for Solubility: target concentration 2 mg/mL. As for the experimental part:
Experiment 1: 5 mg of Form A and 5 mg of amorphous form were weighed into an 8 mL glass vial, respectively. 2.5 mL of solubility medium was added. Obtained suspensions/solutions were stirred at 37° C. at 400 rpm and sampled at 2 hours and at 24 hours. Obtained suspensions/solutions were filtered through a 0.45 μm PVDF membrane filter by centrifugation at 14,000 rpm and at 37° C. Filtrate were analyzed by HPLC and pH meter for solubility and pH value, respectively. Residual solids (wet cakes) from the 24 hours samples were also characterized by XRPD to determine physical form.

Data set [2] in a line: Solubility, Experiment 2 (target concentration 5 mg/mL). It counts as physicochemical. The note with it: 37° C. As for the experimental part: Experiment 2: 5 mg of Form A and 5 mg of amorphous form were weighed into an 8 mL glass vial, respectively. 1 mL of solubility medium was added. Obtained suspensions/solutions were stirred at 37° C. at 400 rpm and sampled at 2 hours and at 24 hours. Obtained suspensions/solutions were filtered through a 0.45 μm PVDF membrane filter by centrifugation at 14,000 rpm and at 37° C. Filtrate were analyzed by HPLC and pH meter for solubility and pH value, respectively.

Data set [3] in a line: Phase 1 clinical trial, pharmacokinetics. The data set is classed as in vivo, human. The note with it: for AUC0-24 / Cmin / half-life / Cmax: patients; for AUC0-24 / Cmin / Cmax: geometric mean (geometric CV %); for half-life / Cmax: human, plasma, po. An excerpt: (§1) A Phase 1 Open-Label Study to Assess the Safety, Tolerability, Pharmacokinetics, and Pharmacodynamics of Compound 1 in Patients with MAPK Pathway-Driven Advanced Solid Tumors with a Documented RAS, NF1, or RAF Mutation or Patients Who have Failed BRAF/MEK Inhibition
(§2) The Phase 1 clinical trial is a multi-center, open-label, dose escalation 3+3 study design to evaluate the safety, tolerability, pharmacokinetic (PK), pharmacodynamic (PD), and preliminary efficacy of Compound 1 in patients with MAPK pathway driven advanced solid tumors with a documented RAS, NF or RAF mutation or patients who have failed BRAF/MEK inhibition.
(§3) Patients with histologically or cytologically diagnosed mitogen-activated protein kinase (MAPK) pathway driven advanced solid tumors with all of the following characteristics qualified for enrollment: • i. tumor cannot be surgically resected • ii. patient has failed or is ineligible for standard of care therapy • iii. patient has no available treatment options with known clinical benefit • iv. documented evidence of rat sarcoma virus (RAS), neurofibromatosis type I (NF1), and/or rapidly accelerated fibrosarcoma (RAF) mutations. Patients with RAF mutations must have previously failed v-Raf murine sarcoma viral oncogene homolog B (BRAF)/MEK inhibition.
(§4) Patients in the study were administered Compound 1 by mouth as a single dose, followed by one week observation, then once a day during the study, in 28-day cycles. Participants will continue on daily Compound 1 for up to 2 years, or until: • i. they decide to withdraw from the study, or • ii. they experience unacceptable side effects, or • iii. their disease progresses, or another illness interferes with taking the study drug, or • iv. the sponsors stops the study.
(§5) In this study, Compound 1 was presented in 1 mg, 4 mg, and 10 mg strength capsules, intended for oral administration once daily. Sequential dose escalation is: 2 mg, 4 mg, 8 mg, 15 mg, 22 mg, 30 mg, 37 mg, and 45 mg.

A short description of data set [4]: Phase 1 clinical trial, safety and tolerability. The data set is classed as in vivo, human.
Description: as §1, §2, §3, §4, §5

[5] abbreviates: Acetate buffer (50 mM), pH 4.5, 24 h.
Where [6] appears, read: Phosphate buffer (50 mM), pH 6.8, 24 h.
Where [7] appears, read: 2 mg, Day 22 (steady state), oral once daily.
Setting [8] is: 4 mg, Day 22 (steady state), oral once daily.

Values after ≈ are worked out from the molar mass of the structure shown. “Also recorded” adds a separate entry of the source. Read-outs that look alike come from different tables or passages of the source.

With `O=S1(=O)Nc2c(cc(F)c(F)c2Nc2ccc(I)cc2F)OC[C@H](O)[C@H](O)CC12CC2` [Amorphous form, (5R,6S)-10,11-difluoro-12-((2-fluoro-4-iodophenyl)amino)-5,6-dihydroxy-4,5,6,7-tetrahydro-1H-spiro[benzo[b][1,5,4]oxathiazecine-3,1′-cyclopropane]2,2-dioxide], the Solubility in data set [1] (Acetate buffer (50 mM), pH 4.5, 2 h) was 0.017 mg/mL (≈ 29.8 µM); in data set [1] (setting [5]), 0.017 mg/mL (≈ 29.8 µM); in data set [1] (FaSSGF, pH 1.6, 2 h) it was 0.016 mg/mL (≈ 28.1 µM); in data set [1] (FaSSGF, pH 1.6, 24 h), 0.014 mg/mL (≈ 24.5 µM); in data set [1] (FaSSIF-v1, pH 6.5, 2 h), 1.1 mg/mL (≈ 1930 µM); in data set [1] (FaSSIF-v1, pH 6.5, 24 h), 1.2 mg/mL (≈ 2100 µM). The Solubility in data set [1] (FeSSIF-v1, pH 5.0, 2 h) is more than 2 mg/mL; in data set [1] (FeSSIF-v1, pH 5.0, 24 h), more than 2 mg/mL; in data set [1] (HCl solution, pH 1.2, 2 h), 0.014 mg/mL (≈ 24.5 µM); in data set [1] (HCl solution, pH 1.2, 24 h) it was 0.013 mg/mL (≈ 22.8 µM); in data set [1] (Phosphate buffer (50 mM), pH 6.8, 2 h) it was 0.016 mg/mL (≈ 28.1 µM); in data set [1] (setting [6]), 0.016 mg/mL (≈ 28.1 µM). For the same compound, the Solubility in data set [1] (Water, 2 h) is 0.038 mg/mL (≈ 66.6 µM); in data set [1] (Water, 24 h) it was 0.034 mg/mL (≈ 59.6 µM); in data set [2] (FeSSIF-v1, pH 5.0, 2 h), more than 5 mg/mL; in data set [2] (FeSSIF-v1, pH 5.0, 24 h), more than 5 mg/mL. The “XRPD of residual solid” value in data set [1] (setting [5]) is recorded as “Amorphous”; in data set [1] (FaSSGF, pH 1.6, 24 h), “Amorphous”; in data set [1] (FaSSIF-v1, pH 6.5, 24 h), “Amorphous”; in data set [1] (HCl solution, pH 1.2, 24 h), “Form A”; in data set [1] (setting [6]), “Amorphous”; in data set [1] (Water, 24 h) it was “Amorphous”.
As to `O=S1(=O)Nc2c(cc(F)c(F)c2Nc2ccc(I)cc2F)OC[C@H](O)[C@H](O)CC12CC2` [Compound 1, (5R,6S)-10,11-difluoro-12-((2-fluoro-4-iodophenyl)amino)-5,6-dihydroxy-4,5,6,7-tetrahydro-1H-spiro[benzo[b][1,5,4]oxathiazecine-3,1′-cyclopropane]2,2-dioxide], in data set [3] (2 mg and 4 mg cohorts), the “Dose dependence of plasma exposure” value is recorded as “linear PK was observed”. Further, the AUC0-24 in data set [3] (2 mg, Day 1, oral) was 86.3 (89.2) ng*h/mIL; in data set [3] (setting [7]), 354 (95.2) ng*h/mIL; in data set [3] (4 mg, Day 1, oral), 100 (97.1) ng*h/mIL; in data set [3] (setting [8]) it was 1,390 (12.8) ng*h/mIL. Moreover, the Cmin is 10.2 (119.4) ng/mL in data set [3] (setting [7]) and 51.5 (20.8) ng/mL in data set [3] (setting [8]). Also, in data set [3] (at steady-state, 2 mg and 4 mg dose groups), the “time at which drug levels peaked” value is listed as “about 5 hours”. Further, the half-life was approximately 2.92 days in data set [3] (2 mg and 4 mg cohorts, oral, read-out: half-life (converted)); 2.83 days in data set [3] (2 mg and 4 mg cohorts, oral, read-out: mean elimination half-life (converted)). In addition, the Cmax in data set [3] (2 mg, Day 1, oral) worked out at 4.91 ng/mL; in data set [3] (setting [7]), 16.2 ng/mL; in data set [3] (4 mg, Day 1, oral) it was 6.36 ng/mL; in data set [3] (setting [8]) it was 61.3 ng/mL. The Cmax/Cmin ratio in data set [3] (plasma concentration at steady state) is reported as 1.2. The “Rash or skin, gastrointestinal (GI), ocular toxicity” value in data set [4] (2 and 4 mg dose levels) is “without showing adverse side effects such as rash or GI toxicity; also recorded: no rash or skin toxicity, gastrointestinal (GI) toxicity, or ocular toxicity have been observed”. Further, in data set [4] (any dose arm), the “Drug-related serious adverse events (SAE)” value was “no drug-related serious adverse events”. The “Drug-related dose interruptions, reductions or discontinuations” value in data set [4] (first 2 dosing cohorts (n=6)) is “no drug-related dose interruptions, reductions or discontinuations”. In addition, the Tolerability result in data set [4] (first 2 dosing cohorts (n=6), 2 mg and 4 mg) is reported as “well-tolerated”.

The record behind these values is US20260193221A1, “SOLID FORMS COMPRISING (5R,6S)-10,11-DIFLUORO-12-((2-FLUORO-4-IODOPHENYL)AMINO)-5,6-DIHYDROXY-4,5,6,7-TETRAHYDRO-1H-SPIRO[BENZO[B][1,5,4]OXATHIAZECINE-3,1'-CYCLOPROPANE] 2,2-DIOXIDE, AND COMPOSITIONS COMPRISING AND METHODS OF USING THE SAME” (PASITHEA THERAPEUTICS CORP., priority 2024, published 2026).
